Here are results for 4 molecules from paper doi:10.1101/2023.11.24.568596v1 (biorxiv, 2023).

Among the targets are AAK1 (Homo sapiens, UniProt Q2M2I8); CDKL1 (Homo sapiens, UniProt Q00532); PIM1 (Homo sapiens, UniProt P11309); FLT1 (Homo sapiens, UniProt P17948); TAF1 (Homo sapiens, UniProt P21675); SLK (Homo sapiens, UniProt Q9H2G2); Erk3 (Homo sapiens, UniProt Q16659); CK1e (Homo sapiens, UniProt P49674).
Common to all, as to conditions: binder
Another assay deals with T1, GAK (Homo sapiens, UniProt O14976).
T1 sequence (O14976 1-1311): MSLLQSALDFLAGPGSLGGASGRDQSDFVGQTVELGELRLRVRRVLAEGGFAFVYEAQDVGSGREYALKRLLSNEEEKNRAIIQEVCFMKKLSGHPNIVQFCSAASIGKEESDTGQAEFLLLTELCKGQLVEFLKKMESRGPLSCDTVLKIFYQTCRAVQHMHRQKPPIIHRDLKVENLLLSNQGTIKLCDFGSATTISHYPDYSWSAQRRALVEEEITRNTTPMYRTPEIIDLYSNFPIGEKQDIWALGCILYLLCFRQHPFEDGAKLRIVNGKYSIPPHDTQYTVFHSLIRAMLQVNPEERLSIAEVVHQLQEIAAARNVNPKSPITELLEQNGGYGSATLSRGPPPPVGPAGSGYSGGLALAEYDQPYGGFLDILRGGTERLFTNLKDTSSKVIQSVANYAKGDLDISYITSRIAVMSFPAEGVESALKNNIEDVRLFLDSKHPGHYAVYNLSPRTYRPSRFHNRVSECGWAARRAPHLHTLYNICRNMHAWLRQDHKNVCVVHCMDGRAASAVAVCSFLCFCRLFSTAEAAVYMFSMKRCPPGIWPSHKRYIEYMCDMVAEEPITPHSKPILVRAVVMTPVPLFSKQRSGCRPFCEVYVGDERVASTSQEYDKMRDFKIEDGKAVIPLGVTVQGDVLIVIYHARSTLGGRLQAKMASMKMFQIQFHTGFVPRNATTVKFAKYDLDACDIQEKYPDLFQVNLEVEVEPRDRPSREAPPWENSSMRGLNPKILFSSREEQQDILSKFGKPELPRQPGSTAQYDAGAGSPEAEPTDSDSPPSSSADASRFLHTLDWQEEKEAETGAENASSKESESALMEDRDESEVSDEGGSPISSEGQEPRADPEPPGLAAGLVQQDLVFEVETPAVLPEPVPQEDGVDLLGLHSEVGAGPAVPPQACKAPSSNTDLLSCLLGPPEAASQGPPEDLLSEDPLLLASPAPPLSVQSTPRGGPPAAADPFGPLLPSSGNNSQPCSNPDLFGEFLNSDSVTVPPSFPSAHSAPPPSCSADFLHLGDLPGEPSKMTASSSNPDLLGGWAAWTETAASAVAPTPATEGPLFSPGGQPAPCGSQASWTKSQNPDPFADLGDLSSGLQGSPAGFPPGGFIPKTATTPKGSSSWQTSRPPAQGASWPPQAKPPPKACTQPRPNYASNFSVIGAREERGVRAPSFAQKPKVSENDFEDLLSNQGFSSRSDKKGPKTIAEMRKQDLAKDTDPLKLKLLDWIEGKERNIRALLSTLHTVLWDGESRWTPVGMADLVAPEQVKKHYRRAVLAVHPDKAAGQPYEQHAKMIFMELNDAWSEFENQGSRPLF

The target in the next assay is T2, NEK2 (Homo sapiens, UniProt P51955).
T2 sequence (P51955 1-445): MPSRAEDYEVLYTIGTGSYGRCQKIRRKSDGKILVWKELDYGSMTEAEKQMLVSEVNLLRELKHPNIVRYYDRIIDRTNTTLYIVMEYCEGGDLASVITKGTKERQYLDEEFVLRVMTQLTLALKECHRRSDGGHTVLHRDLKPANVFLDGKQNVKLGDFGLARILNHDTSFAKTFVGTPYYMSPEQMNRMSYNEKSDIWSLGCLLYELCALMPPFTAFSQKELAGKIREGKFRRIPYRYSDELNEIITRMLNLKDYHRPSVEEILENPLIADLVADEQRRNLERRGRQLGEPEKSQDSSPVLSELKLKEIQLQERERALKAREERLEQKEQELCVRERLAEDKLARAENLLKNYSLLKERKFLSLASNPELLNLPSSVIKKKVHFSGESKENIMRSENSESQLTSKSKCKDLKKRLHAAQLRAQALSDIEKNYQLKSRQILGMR

Chain of FLT1 (P17948 whole entry): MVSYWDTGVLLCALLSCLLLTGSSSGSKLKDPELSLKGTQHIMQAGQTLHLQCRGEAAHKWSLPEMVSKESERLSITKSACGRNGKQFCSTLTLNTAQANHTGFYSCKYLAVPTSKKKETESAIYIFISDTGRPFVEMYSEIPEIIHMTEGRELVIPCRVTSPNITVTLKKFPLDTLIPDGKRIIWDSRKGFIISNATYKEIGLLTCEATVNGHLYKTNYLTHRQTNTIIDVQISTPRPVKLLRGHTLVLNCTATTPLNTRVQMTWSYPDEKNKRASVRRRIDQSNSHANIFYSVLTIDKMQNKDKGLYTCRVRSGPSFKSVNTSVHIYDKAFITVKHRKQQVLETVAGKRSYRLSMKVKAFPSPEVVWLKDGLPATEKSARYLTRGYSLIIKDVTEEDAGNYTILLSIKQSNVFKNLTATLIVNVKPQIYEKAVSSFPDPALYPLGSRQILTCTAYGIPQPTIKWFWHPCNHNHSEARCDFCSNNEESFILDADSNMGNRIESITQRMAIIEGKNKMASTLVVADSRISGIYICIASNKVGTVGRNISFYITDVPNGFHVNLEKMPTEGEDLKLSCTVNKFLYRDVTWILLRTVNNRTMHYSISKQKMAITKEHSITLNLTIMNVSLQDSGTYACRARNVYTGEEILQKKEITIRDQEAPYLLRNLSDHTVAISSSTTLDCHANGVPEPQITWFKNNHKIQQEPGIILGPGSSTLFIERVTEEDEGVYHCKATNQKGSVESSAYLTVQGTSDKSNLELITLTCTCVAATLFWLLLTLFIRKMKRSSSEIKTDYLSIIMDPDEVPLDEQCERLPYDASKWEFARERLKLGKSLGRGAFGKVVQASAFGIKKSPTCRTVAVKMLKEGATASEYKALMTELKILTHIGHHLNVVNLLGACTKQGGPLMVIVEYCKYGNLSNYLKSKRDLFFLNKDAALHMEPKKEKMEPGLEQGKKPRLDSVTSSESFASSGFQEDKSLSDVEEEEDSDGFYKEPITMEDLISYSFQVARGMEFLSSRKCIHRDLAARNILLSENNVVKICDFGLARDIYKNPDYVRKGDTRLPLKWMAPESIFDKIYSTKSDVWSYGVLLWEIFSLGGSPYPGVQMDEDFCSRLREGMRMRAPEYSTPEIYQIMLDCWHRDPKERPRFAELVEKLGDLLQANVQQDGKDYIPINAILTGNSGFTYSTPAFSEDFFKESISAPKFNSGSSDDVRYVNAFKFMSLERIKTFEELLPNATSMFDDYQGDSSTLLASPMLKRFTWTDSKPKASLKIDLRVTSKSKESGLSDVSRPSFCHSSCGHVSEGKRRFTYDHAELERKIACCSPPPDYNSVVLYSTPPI
Chain of PIM1 (P11309 whole entry): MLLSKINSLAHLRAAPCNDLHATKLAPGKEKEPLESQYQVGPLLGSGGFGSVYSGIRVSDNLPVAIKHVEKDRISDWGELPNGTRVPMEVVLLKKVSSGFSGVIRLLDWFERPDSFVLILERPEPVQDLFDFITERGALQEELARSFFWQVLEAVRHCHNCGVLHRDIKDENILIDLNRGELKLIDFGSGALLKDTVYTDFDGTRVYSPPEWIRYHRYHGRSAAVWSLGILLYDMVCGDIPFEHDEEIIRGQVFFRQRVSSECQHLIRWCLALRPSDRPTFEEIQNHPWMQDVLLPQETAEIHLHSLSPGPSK
Chain of CK1e (P49674 whole entry): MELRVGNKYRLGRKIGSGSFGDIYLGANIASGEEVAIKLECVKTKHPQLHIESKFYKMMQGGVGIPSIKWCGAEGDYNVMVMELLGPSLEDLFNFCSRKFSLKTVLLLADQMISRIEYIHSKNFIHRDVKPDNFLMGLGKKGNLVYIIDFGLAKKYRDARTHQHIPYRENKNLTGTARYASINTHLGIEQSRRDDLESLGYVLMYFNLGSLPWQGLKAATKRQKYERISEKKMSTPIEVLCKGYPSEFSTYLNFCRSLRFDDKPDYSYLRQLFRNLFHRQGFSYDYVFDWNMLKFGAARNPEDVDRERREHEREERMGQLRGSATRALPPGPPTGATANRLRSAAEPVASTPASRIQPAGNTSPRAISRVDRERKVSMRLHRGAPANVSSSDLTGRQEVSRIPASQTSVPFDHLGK
Chain of TAF1 (P21675 whole entry): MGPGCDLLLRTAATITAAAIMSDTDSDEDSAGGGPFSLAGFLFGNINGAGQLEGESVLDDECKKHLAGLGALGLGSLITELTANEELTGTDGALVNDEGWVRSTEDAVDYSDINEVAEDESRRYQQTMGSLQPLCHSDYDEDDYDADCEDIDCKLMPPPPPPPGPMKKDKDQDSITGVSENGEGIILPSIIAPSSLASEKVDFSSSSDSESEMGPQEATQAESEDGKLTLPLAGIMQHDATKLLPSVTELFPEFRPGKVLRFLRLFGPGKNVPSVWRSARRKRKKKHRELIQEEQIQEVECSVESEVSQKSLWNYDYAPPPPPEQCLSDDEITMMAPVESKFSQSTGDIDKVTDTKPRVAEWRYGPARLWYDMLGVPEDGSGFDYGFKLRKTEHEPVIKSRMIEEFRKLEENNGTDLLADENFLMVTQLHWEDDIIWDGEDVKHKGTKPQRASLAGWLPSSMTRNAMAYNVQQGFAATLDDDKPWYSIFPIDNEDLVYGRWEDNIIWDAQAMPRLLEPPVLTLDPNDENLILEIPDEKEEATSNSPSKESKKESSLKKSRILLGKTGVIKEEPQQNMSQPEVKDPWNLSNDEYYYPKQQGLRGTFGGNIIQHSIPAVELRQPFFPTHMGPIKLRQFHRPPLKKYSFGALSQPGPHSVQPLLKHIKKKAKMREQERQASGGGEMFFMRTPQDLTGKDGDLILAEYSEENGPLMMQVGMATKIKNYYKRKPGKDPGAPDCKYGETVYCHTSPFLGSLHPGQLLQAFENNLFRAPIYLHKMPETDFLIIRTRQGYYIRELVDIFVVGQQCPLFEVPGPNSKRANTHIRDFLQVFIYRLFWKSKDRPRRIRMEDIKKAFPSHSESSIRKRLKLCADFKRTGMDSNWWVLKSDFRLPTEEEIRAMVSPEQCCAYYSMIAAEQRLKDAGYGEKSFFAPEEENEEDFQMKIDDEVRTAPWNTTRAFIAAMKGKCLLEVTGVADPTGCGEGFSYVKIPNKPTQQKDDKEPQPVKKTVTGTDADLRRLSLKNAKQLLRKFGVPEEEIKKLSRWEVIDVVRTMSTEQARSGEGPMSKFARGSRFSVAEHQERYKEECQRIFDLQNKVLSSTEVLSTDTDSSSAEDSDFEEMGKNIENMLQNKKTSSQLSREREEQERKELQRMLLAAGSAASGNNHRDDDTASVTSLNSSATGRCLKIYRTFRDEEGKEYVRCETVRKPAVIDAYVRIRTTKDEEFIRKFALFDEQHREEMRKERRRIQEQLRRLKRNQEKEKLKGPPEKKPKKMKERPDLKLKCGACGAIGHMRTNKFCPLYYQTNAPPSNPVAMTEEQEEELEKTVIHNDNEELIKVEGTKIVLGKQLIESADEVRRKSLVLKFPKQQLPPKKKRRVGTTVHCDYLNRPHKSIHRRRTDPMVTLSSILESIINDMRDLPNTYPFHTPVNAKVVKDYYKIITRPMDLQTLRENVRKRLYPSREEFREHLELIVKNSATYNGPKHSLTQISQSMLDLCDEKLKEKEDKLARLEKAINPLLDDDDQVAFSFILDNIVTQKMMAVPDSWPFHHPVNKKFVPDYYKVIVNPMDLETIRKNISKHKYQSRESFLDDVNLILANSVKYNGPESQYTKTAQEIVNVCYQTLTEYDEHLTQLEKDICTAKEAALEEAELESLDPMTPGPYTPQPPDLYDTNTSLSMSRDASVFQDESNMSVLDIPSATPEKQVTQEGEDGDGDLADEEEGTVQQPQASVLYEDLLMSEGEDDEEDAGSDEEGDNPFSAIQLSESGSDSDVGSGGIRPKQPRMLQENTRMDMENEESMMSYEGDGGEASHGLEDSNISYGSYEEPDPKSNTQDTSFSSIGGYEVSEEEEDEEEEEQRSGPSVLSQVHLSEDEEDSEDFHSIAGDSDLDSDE
Chain of AAK1 (Q2M2I8 whole entry): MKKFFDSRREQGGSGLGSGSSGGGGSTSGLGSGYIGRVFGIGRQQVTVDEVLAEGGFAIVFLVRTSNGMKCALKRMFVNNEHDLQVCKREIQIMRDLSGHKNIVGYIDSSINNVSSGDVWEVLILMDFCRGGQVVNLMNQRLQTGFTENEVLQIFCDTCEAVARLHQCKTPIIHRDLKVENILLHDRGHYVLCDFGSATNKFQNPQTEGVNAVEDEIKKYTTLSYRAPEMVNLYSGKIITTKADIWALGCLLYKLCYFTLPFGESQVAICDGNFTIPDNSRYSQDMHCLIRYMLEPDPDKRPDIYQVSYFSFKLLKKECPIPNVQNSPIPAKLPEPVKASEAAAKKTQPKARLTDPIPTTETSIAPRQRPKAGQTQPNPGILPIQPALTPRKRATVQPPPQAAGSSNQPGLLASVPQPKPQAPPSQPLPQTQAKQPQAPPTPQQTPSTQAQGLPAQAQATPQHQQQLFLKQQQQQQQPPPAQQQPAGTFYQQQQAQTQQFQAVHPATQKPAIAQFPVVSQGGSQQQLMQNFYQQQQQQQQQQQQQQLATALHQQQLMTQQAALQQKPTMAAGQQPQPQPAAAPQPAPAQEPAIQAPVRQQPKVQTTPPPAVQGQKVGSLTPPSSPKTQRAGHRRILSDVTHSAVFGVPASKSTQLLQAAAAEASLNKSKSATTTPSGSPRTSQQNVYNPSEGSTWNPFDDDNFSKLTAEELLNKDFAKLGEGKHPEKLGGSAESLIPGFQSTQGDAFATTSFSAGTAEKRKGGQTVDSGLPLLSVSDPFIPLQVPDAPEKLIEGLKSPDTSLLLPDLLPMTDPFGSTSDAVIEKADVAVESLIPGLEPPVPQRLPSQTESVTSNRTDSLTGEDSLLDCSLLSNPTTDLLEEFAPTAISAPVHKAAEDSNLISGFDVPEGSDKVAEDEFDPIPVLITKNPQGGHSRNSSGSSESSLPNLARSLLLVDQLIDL

Consider `Cc1cccc(-c2ccc(-c3cc4cnc(Nc5ccc(F)c(CO)c5)nc4n(CCCCN)c3=O)c(Cl)c2)n1` [compound 33, 8-(4-Aminobutyl)-6-(2-chloro-4-(6-methylpyridin-2-yl)phenyl)-2-((4-fluoro-3-(hydroxymethyl)phenyl)amino)pyrido[2,3-d]pyrimidin-7(8H)-one], for which the “dTm 33” value on GAK came out at 12.5 °C; on AAK1, 4.1 °C; on CDKL1 it was 2.0 °C; on NEK2, 10.6 °C; at PIM1, 3.3 °C; on FLT1 it was 4.9 °C. In addition, the “dTm 33” value on TAF1 is -0.2 °C; at SLK, 8.0 °C; on Erk3, 0.9 °C; on CK1e, 6.9 °C.
For `COc1ccc(O)c(Nc2ncc3cc(-c4ccc(-c5cccc(C)n5)cc4Cl)c(=O)n(CCCCN)c3n2)c1` [compound 34, 8-(4-Aminobutyl)-6-(2-chloro-4-(6-methylpyridin-2-yl)phenyl)-2-((2-hydroxy-5-methoxy-phenyl)amino)pyrido[2,3-d]pyrimidin-7(8H)-one], the “dTm 34” value came out at 9.3 °C on GAK; 1.4 °C on AAK1; 1.5 °C on CDKL1; 8.4 °C at NEK2; 2.7 °C on PIM1; 3.2 °C on FLT1. The “dTm 34” value on TAF1 stood at 0.1 °C; at SLK it was 4.7 °C; on Erk3, 0.7 °C; at CK1e, 6.5 °C.
Turning to `COc1cc(N2CCOCC2)ccc1Nc1ncc2cc(-c3ccc(-c4cccc(C)n4)cc3Cl)c(=O)n(CCCCN)c2n1` [compound 35, 8-(4-Aminobutyl)-6-(2-chloro-4-(6-methylpyridin-2-yl)phenyl)-2-((2-methoxy-4-morpholino-phenyl)amino)pyrido[2,3-d]pyrimidin-7(8H)-one], the “dTm 35” value on GAK is 13.5 °C; at AAK1, 3.0 °C; at CDKL1 it was 0.3 °C; at NEK2 it was 10.6 °C; at PIM1, -0.9 °C; on FLT1, 5.6 °C. The “dTm 35” value was -0.7 °C at TAF1, 5.1 °C on SLK, 0.6 °C on Erk3 and 6.6 °C at CK1e.
With `COc1cc(N2CCN(C)CC2)ccc1Nc1ncc2cc(-c3ccc(-c4cccc(C)n4)cc3Cl)c(=O)n(CCCCN)c2n1` [compound 36, 8-(4-Aminobutyl)-6-(2-chloro-4-(6-methylpyridin-2-yl)phenyl)-2-((2-methoxy-4-(4-methylpiperazin-1-yl)phenyl)amino)pyrido[2,3-d]pyrimidin-7(8H)-one], the “dTm 36” value was 11.7 °C on GAK; 2.4 °C on AAK1; 0.8 °C at CDKL1; 9.2 °C at NEK2; -0.1 °C at PIM1; 4.4 °C at FLT1. The “dTm 36” value is -0.4 °C at TAF1, 4.2 °C on SLK, 0.5 °C on Erk3 and 5.1 °C on CK1e.
